Data as given in patent US20150174144A1, “TETRACYCLINE COMPOUNDS FOR TREATING NEURODEGENERATIVE DISORDERS” (PARATEK PHARMACEUTICALS, INC., priority 2012, published 2015).
pIC50: −log10 of the molar value. In brackets after ≈: the same amount, converted by molar mass. Where two headings read alike, the source gives them in different places.

Legend:
[1] = Alkylperoxy radical scavenging assay (AIPH, AE-Trolox oxidation); conditions: for pIC50: 5 mM AIPH, 37° C., 8 minutes, read-out: IC50, inhibition of AE-Trolox oxidation (alkylperoxy radical scavenging); for Percent Trolox Activity / Trolox Equivalents: relative to Trolox
Experimental: In a separate assay, alkylperoxy radicals were generated in vitro using the radical generator AIPH (2,2′-azobis-[2-(2-imidazolyn-2-yl)-propane) and the ability of tetracyclines to scavenge these radicals was determined. […] Also, the ability of Compound 1 and minocycline to specifically scavenge peroxynitrite-carbonate radicals was determined.
In this study, alkylperoxy radicals were generated in vitro using the radical generator AIPH (2,2′-azobis-[2-(2-imidazolyn-2-yl)-propane) and the ability of tetracyclines, such as Compound 1, to scavenge these radicals was determined.
Trolox is a known scavenger of peroxyradicals. Structurally similar to a-tocopherol, Trolox reacts with peroxyradicals via a known mechanism with linear kinetics under excess oxygen conditions. In the presence of a competing antioxidant compound, the rate of Trolox oxidation will change based on the relative rate of oxidation and concentration of the competing antioxidant compound (Huang, et al., J. Agric. Food Chem. 2005, 25, 1841-1856). By measuring the effect of antioxidant concentration on the rate of degradation of Trolox, the relative antioxidant capacity of a compound can be determined. This principle is the basis of the widely used antioxidant capacity assay, ORAC (Huang, et al., J. Agric. Food Chem. 2002, 50, 1815-1821). Unlike ORAC which uses a fluorescent dye indicator, the assay described here directly measures the oxidation of the Trolox derivative, 2-aminoethyl-Trolox (AE-Trolox). This method eliminates interference of the fluorescent dye reaction by tetracycline compounds.
To the first column of a 96-well PCR plate (0.2 mL volume) was added 160 μL of TCWS. One well of the first column would equal one IC50 determination. […] To the remaining wells in columns 2-11 was added 80 μL of AET-WS. Using a multichannel pipettor, column 1 was serially diluted in 2-fold dilutions by removing 80 μL from column 1 and transferring with mixing to column 2. Column 2 was then diluted to column 3 and so on until column 11 where 80 μL of the diluted mixture was removed and discarded. Four wells of row 12 were designated as the 0 test compound/0 AIPH control to which 80 μL of AET-WS was added. One well of row 12 per test compound was designated as the 0 test compound control to which 80 μL of the AET-WS was added.
(§1) The plate was covered and incubated for 5 minutes at 37° C. upon which the reaction was initiated by addition of 20 μL of AIPH to columns 1-11 using a multichannel pipettor with mixing. The reaction was initiated similarly to the 0 test compound wells of column 12. To the 0 test compound/0 AIPH control wells was added 20 μL of PB buffer. The plate was incubated at 37° C. for 8 minutes (the reaction is linear for 10 minutes) and quenched by addition of 50 μL of AA to all wells with mixing. The plate was placed on ice for 5 minutes. Quenched assay mixtures were stable at room temperature for at least 24 hours.
Each reaction mixture was analyzed for AE-Trolox by 2D-LCMS on a Shimadzu 2010 equipped with a loading column (Shim-pack MAYI-ODS, 4.6×10 mm) and a gradient column Phenomenex Luna C18(2) column, 3 um, 4.6×50 mm. Using an automated 2-position swithching valve, samples were loaded onto the loading column by Pump C and washed for 1 minute with loading buffer. At 1 minute, the valve was switched to elution position (Position B, reversed flow through loading column) and the samples were eluted through the gradient column. The loading buffer (Buffer C) was 10% acetonitrile in water with 0.2% formic acid and the gradient buffers were water+0.2% formic acid (A buffer) and acetonitrile+0.2% formic acid (B buffer). Typical injection volumes were 30 μL.
From the TIC integration of AE-Trolox and AE-Trolox-d4, a ratio was calculated:
Ratio=AUCAE-Trolox/AUCAE-Trolox-d4
Percent inhibition of AE-Trolox oxidation (measured as disappearance of AE-Trolox) was then determined by:
% Inhibition=[1−((Ratio0−Ratiox)/(Ratioo−Ratiof))]*100

[2] = test system: MS; conditions: cited from earlier work; for % lesion reduction: gadolinium-enhancing MRI lesions
[3] = Peroxynitrite-carbonate radical scavenging assay (DHR probe); conditions: for pIC50: Sin-1, 37° C., 8 minutes, read-out: IC50, inhibition of oxidation of DHR probe (peroxynitrite-carbonate scavenging); for Uric Acid Equivalents: relative to uric acid
Experimental: Inflammatory conditions are characterized by increasing concentrations of reactive oxygen species. In this study, the ability of Compound 1 to specifically scavenge peroxynitrite-carbonate radicals was determined.
To the first column of a 96-well PCR plate (0.2 mL volume) was added 160 μL of TCWS. One well of the first column would equal one IC50 determination. Typically, test compounds were assayed in duplicate, i.e. two wells of column 1 were filled with each TCWS. To the remaining wells in columns 2-11 was added 80 μL of DWS. Using a multichannel pipettor, column 1 was serially diluted in 2-fold dilutions by removing 80 μL from column 1 and transferring with mixing to column 2. Column 2 was then diluted to column 3 and so on until column 11 where 80 μL of the diluted mixture was removed and discarded. At least 2 wells of row 12 were designated as the 0 test compound control to which 80 μL of DWS was added. One well of row 12 per test compound was designated as the background control to which 80 μL of the TCWS was added.
as §1, with “Sin-1” for “AIPH”, “background” for “0 test compound/0 AIPH”, “PC” for “PB”
Each reaction mixture (20 μL) was analyzed for rhodamine 123 product by HPLC using a Phenomenex Luna C18(2) column, 3 um, 4.6×50 mm using an A buffer of water+0.1% TFA and a B buffer of acetonitrile+0.1% TFA and the following gradient method: […]
The absorbance at 280 nm was also recorded to ensure no co-elution of test compound peaks.
Initial examination of the background control samples at the highest test compound concentration were performed to ensure no co-elution of test compound peaks with the product rhodamine 123 at 4 minutes. If co-elution was observed, the compound was not tested until an appropriate HPLC method was developed to separate the product and test compound peaks. The rhodamine 123 AUC was then determined for each test compound concentration and the percent inhibition of rhodamine 123 fluorescence was then determined by the following equation:
% Inhibition=[(AUCo−AUCx)/AUCo]*100
Where AUCo is the AUC of the rhodamine 123 peak at 0 test compound concentration and AUCX is the AUC of the rhodamine 123 peak at each test compound concentration=x.
The standard error of the curve fit for the IC50 was also determined along with the Hill slope. The IC50 determined for uric acid was divided by the IC50 determined for each test compound to generate Uric Acid Equivalents, a measure of the peroxynitrite-carbonate radical scavenging ability relative to uric acid.
Uric Acid Equivalents=[…]

[4] = test system: E. coli; experiment: Antibacterial activity, E. coli MIC; format: cell-based; conditions: Escherichia coli; Table 8
[5] = test system: animal models of MS and neuroprotection; experiment: Accepted animal models of MS and neuroprotection (Table 2); design: concentration or dose not given beside the values; conditions: in vivo

Cc1c(C)c2c(c(C)c1O)CCC(C)(C(=O)O)O2 (centres unmarked) [Trolox]
pIC50 [1]: 5.05
Percent Trolox Activity [1]: 100%
Trolox Equivalents [1]: 1.00

COC(=O)/C=C/C(=O)OC [BG-12]
% Relapses eduction ([2]; MS clinical studies): 32%
potential side effects ([2]; MS clinical studies): Flushing
% lesion reduction ([2]; MS clinical studies): 69%

Natalizumab [TYSABRI ®]
% Relapses eduction ([2]; MS clinical studies): 68%
potential side effects ([2]; MS clinical studies): Liver damage, fatigue, fatal
% lesion reduction ([2]; MS clinical studies): 83%

O=c1[nH]c(=O)c2[nH]c(=O)[nH]c2[nH]1 [Uric acid]
pIC50 [3]: 4.91
Uric Acid Equivalents [3]: 1

C/C(O)=C(\C#N)C(=O)Nc1ccc(C(F)(F)F)cc1 [Teriflunomid]
% Relapses eduction ([2]; MS clinical studies): 30%
potential side effects ([2]; MS clinical studies): Mild infections, Fatigue,
% lesion reduction ([2]; MS clinical studies): 44%

C[C@H]1c2cccc(O)c2C(=O)C2=C(O)[C@]3(O)C(=O)C(C(N)=O)=C(O)[C@@H](N(C)C)[C@@H]3[C@@H](O)[C@@H]21 [Doxycycline, doxycycline]
MIC [4]: 0.5 µg/mL (≈ 1.13 µM)

CN(C)[C@@H]1C(O)=C(C(N)=O)C(=O)[C@@]2(O)C(O)=C3C(=O)c4c(O)cccc4C[C@H]3C[C@@H]12 [Sancycline, sancycline]
pIC50 [1]: 3.43
Percent Trolox Activity [1]: 2%
Trolox Equivalents [1]: 0.02
pIC50 [3]: 4.18
Uric Acid Equivalents [3]: 0.19

CCCCCCCCc1ccc(CCC(N)(CO)CO)cc1 [Fingolimod, 2-amino-2-[2-(4-octylphenyl)ethyl]propane-1,3-diol]
% Relapses eduction ([2]; MS clinical studies): 54%
potential side effects ([2]; MS clinical studies): Infections, cancer, cardiac
% lesion reduction ([2]; MS clinical studies): 30%
% Inhibition Axon Loss [5]: 60%
% Inhibition Clinical Score [5]: 89%
% Inhibition Demyelination [5]: 69%
% Inhibition Inflammation [5]: 59%

Glatiramer [COPAXONE ®]
% Relapses eduction ([2]; MS clinical studies): 30%
% lesion reduction ([2]; MS clinical studies): 65%
potential side effects ([2]; human, in vivo): Infection, shaking hands,
% Inhibition Clinical Score [5]: 75%
% Inhibition Demyelination [5]: 74%

CCN(C(=O)c1c(O)c2c(Cl)cccc2n(C)c1=O)c1ccccc1 [Laquinimod]
% Relapses eduction ([2]; MS clinical studies): 21%
potential side effects ([2]; MS clinical studies): Increase in liver enzymes
% lesion reduction ([2]; MS clinical studies): 40%
